These results are taken from ChEMBL document CHEMBL1139137, “Modifications of the GSK3beta substrate sequence to produce substrate-mimetic inhibitors of Akt as potential anti-cancer therapeutics” (Bioorg Med Chem Lett, 2007).

Starred links: 1 amine or outer side, 2 acyl side, 3 side chain; linkers in the order of their positions; H or OH if unused. Non-standard residues stand in square brackets, D forms with d. Residues, ends and D or L forms follow the SMILES beside them. *: point of attachment. NH(2-(1-naphthyl)ethyl) = c1ccc2c(CCN*)cccc2c1; NHCH2CH2(piperidin-1-yl) = C1CCN(CCN*)CC1; X4 = c1ccc(CC2CCN(CCN*)CC2)cc1; X1 = CC(=O)Nc1cccc(OCCCN*)c1; X2 = c1ccc2cc(CCN*)ccc2c1; 4Abz = Nc1ccc(C(=O)O)cc1; X3 = CCCCCc1ccc(CN*)cc1; CO = O=C([*:1])[*:2]; NHBn = c1ccc(CN*)cc1; NHHex = CCCCCCN*

In the test the target is RAC-alpha serine/threonine-protein kinase (Homo sapiens, UniProt P31749). The test is described as follows: Inhibition of Akt after 1 hr by fluorescence polarization assay. On the technique in general: Fluorescence polarisation rises when a labelled molecule tumbles more slowly, as on binding a larger partner.
RAC-alpha serine/threonine-protein kinase, sequence (P31749 whole entry): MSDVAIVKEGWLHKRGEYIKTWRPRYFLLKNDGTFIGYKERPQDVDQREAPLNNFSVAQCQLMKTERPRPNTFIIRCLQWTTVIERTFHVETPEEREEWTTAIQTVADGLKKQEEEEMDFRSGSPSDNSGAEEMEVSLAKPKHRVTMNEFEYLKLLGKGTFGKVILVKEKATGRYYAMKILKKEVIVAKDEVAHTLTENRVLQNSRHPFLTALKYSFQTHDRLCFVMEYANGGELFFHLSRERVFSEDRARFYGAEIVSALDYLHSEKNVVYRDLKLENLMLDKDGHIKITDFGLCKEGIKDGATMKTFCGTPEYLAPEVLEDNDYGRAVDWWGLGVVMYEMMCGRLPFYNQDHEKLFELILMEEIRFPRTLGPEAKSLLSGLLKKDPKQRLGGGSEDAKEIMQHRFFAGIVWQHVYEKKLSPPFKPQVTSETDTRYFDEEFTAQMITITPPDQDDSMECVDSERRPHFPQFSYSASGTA
A word on the IC50: it is the point on the concentration scale where inhibition reaches its midpoint. High values mean a need for much substance, low ones inhibition by little substance. Take `CC(C)[C@H](NC(=O)c1ccc(NCCNC(=N)N)cc1)C(=O)N[C@@H](Cc1ccccc1)C(=O)NCc1ccccc1`: it took 390 µM to reach half-maximal inhibition (IC50).

The molecule `CC(C)[C@H](NC(=O)c1ccc(CNC(=N)N)cc1)C(=O)N[C@@H](Cc1ccccc1)C(=O)NCc1ccccc1` gave an IC50 of over 500 µM. The result for `CC(=O)N[C@@H](CCCN=C(N)N)C(=O)Nc1ccc(C(=O)N[C@H](C(=O)N[C@@H](Cc2ccccc2)C(=O)NCCc2ccc3ccccc3c2)C(C)C)cc1` reads 51 µM; that for `CC(=O)N[C@@H](CCCNC(=N)N)C(=O)Nc1ccc(C(=O)N[C@H](C(=O)N[C@@H](Cc2ccccc2)C(=O)NCCc2cccc3ccccc23)C(C)C)cc1`, 89 µM; that for `CC(C)[C@H](NC(=O)c1ccc(CCN=C(N)N)cc1)C(=O)N[C@@H](Cc1ccccc1)C(=O)NCc1ccccc1`, 120 µM. Next, `CC(C)[C@H](NC(=O)c1ccc(N(CC(=O)NC(C)(C)C)C(=O)CCCCNC(=N)N)cc1)C(=O)N[C@@H](Cc1ccccc1)C(=O)NCc1ccccc1`: 58 µM. `CCCCCCNC(=O)[C@H](Cc1ccccc1)NC(=O)[C@@H](NC(=O)c1ccc(NC(=O)[C@H](CCCNC(=N)N)NC(C)=O)cc1)C(C)C` returned an IC50 of 163 µM. Next, `CC(C)[C@H](NC(=O)c1ccc(NC(=N)N)cc1)C(=O)N[C@@H](Cc1ccccc1)C(=O)NCc1ccccc1`: 77 µM. The result for `CCCCCc1ccc(CNC(=O)[C@H](Cc2ccccc2)NC(=O)[C@@H](NC(=O)c2ccc(NC(=O)[C@H](CCCN=C(N)N)NC(C)=O)cc2)C(C)C)cc1` reads 104 µM; that for `CC(C)[C@H](NC(=O)c1ccc(N(CC(=O)NCc2ccccc2)C(=O)CCCCNC(=N)N)cc1)C(=O)N[C@@H](Cc1ccccc1)C(=O)NCc1ccccc1`, 14 µM; that for `CC(C)[C@H](NC(=O)c1ccc(NC(=O)CCCCNC(=N)N)cc1)C(=O)N[C@@H](Cc1ccccc1)C(=O)NCc1ccccc1`, 193 µM. Next, `CC(=O)NCC(=O)N[C@@H](C)C(=O)N1CCC[C@H]1C(=O)N[C@@H](C)C(=O)Nc1ccc(C(=O)N[C@H](C(=O)N[C@@H](Cc2ccccc2)C(=O)NCc2ccccc2)C(C)C)cc1` (Ac-GAPA[4Abz]VF-NHBn): over 500 µM; `CC(=O)NCC(=O)N[C@@H](C)C(=O)N1CCC[C@H]1C(=O)N[C@@H](CCCNC(=N)N)C(=O)Nc1ccc(C(=O)N[C@H](C(=O)N[C@@H](Cc2ccccc2)C(=O)NCc2ccccc2)C(C)C)cc1` (Ac-GAPR[4Abz]VF-NHBn): 41 µM; `CC(=O)NCC(=O)N[C@@H](CCCN=C(N)N)C(=O)N1CCC[C@H]1C(=O)N[C@@H](C)C(=O)Nc1ccc(C(=O)N[C@H](C(=O)N[C@@H](Cc2ccccc2)C(=O)NCc2ccccc2)C(C)C)cc1` (Ac-GRPA[4Abz]VF-NHBn): 79 µM. Take `CC(=O)NCC(=O)N[C@@H](CCCNC(=N)N)C(=O)N1CCC[C@H]1C(=O)N[C@@H](CCCNC(=N)N)C(=O)N[C@@H](C)C(=O)N[C@@H](C)C(=O)N[C@H](C(=O)N[C@@H](Cc1ccccc1)C(=O)NCc1ccccc1)C(C)C` (Ac-GRPRAAVF-NHBn): inhibition was half-maximal at 438 µM (IC50). With `CC(=O)NCC(=O)N[C@@H](CCCNC(=N)N)C(=O)N1CCC[C@H]1C(=O)N[C@@H](CCCNC(=N)N)C(=O)N[C@H](C(=O)N[C@H](C(=O)N[C@H](C(=O)N[C@@H](Cc1ccccc1)C(=O)NCc1ccccc1)C(C)C)[C@@H](C)O)[C@@H](C)O` (Ac-GRPRTTVF-NHBn), the IC50 was 239 µM.

On to `CCCCCCNC(=O)[C@H](Cc1ccccc1)NC(=O)[C@@H](NC(=O)c1ccc(NC(=O)[C@H](CCCN=C(N)N)NC(=O)[C@@H]2CCCN2C(=O)[C@H](CCCN=C(N)N)NC(=O)CNC(C)=O)cc1)C(C)C` (Ac-GRPR[4Abz]VF-NHHex), for which the IC50 is 52 µM.

Regarding `CC(=O)NCC(=O)N[C@@H](CCCNC(=N)N)C(=O)N1CCC[C@H]1C(=O)N[C@@H](CCCNC(=N)N)C(=O)Nc1ccc(C(=O)N[C@H](C(=O)N[C@@H](Cc2ccccc2)C(=O)NCCCOc2cccc(NC(C)=O)c2)C(C)C)cc1` (Ac-GRPR[4Abz]VF-X1), inhibition was half-maximal at 322 µM (IC50). The result for `CC(=O)NCC(=O)N[C@@H](CCCN=C(N)N)C(=O)N1CCC[C@H]1C(=O)N[C@@H](CCCN=C(N)N)C(=O)Nc1ccc(C(=O)N[C@H](C(=O)N[C@@H](Cc2ccccc2)C(=O)NCCc2ccc3ccccc3c2)C(C)C)cc1` (Ac-GRPR[4Abz]VF-X2) reads 36 µM; that for `CCCCCc1ccc(CNC(=O)[C@H](Cc2ccccc2)NC(=O)[C@@H](NC(=O)c2ccc(NC(=O)[C@H](CCCN=C(N)N)NC(=O)[C@@H]3CCCN3C(=O)[C@H](CCCN=C(N)N)NC(=O)CNC(C)=O)cc2)C(C)C)cc1` (Ac-GRPR[4Abz]VF-X3), 96 µM; that for `CC(=O)NCC(=O)N[C@@H](CCCNC(=N)N)C(=O)N1CCC[C@H]1C(=O)N[C@@H](CCCNC(=N)N)C(=O)Nc1ccc(C(=O)N[C@H](C(=O)N[C@@H](Cc2ccccc2)C(=O)NCCN2CCC(Cc3ccccc3)CC2)C(C)C)cc1` (Ac-GRPR[4Abz]VF-X4), 94 µM. As for `CC(=O)NCC(=O)N[C@@H](CCCNC(=N)N)C(=O)N1CCC[C@H]1C(=O)N[C@@H](CCCNC(=N)N)C(=O)Nc1ccc(C(=O)N[C@H](C(=O)N[C@@H](Cc2ccccc2)C(=O)NCCc2cccc3ccccc23)C(C)C)cc1` (Ac-GRPR[4Abz]VF-{NH(2-(1-naphthyl)ethyl)}), the half-inhibitory concentration (IC50) was 62 µM.

Consider `CC(=O)NCC(=O)N[C@@H](CCCNC(=N)N)C(=O)N1CCC[C@H]1C(=O)N[C@@H](CCCNC(=N)N)C(=O)Nc1ccc(C(=O)N[C@H](C(=O)N[C@@H](Cc2ccccc2)C(=O)NCCN2CCCCC2)C(C)C)cc1` (Ac-GRPR[4Abz]VF-{NHCH2CH2(piperidin-1-yl)}), for which the IC50 is over 500 µM. The result for `CC(=O)N[C@@H](CCCN=C(N)N)C(=O)Nc1ccc(C(=O)N[C@H](C(=O)N[C@@H](Cc2ccccc2)C(=O)NCc2ccccc2)C(C)C)cc1` (Ac-R[4Abz]VF-NHBn) reads 119 µM; that for `C[C@@H](O)[C@H](NC(=O)[C@H](CCCNC(=N)N)NC(=O)[C@@H]1CCCN1C(=O)[C@H](CCCNC(=N)N)NC(=O)CNC(=O)O)C(=O)N[C@H](C(=O)N[C@@H](CC(N)=O)C(=O)N[C@@H](Cc1ccccc1)C(=O)O)[C@@H](C)O` ({CO}-GRPRTTNF-OH), 229 µM; that for Ac-GRPRTTAF-OH, 409 µM. The result for Ac-GRPRTTCF-OH reads 241 µM; that for Ac-GRPRTTFF-OH, over 500 µM.

As for Ac-GRPRTTHF-OH, the half-maximal inhibitory concentration (IC50) is over 500 µM.

In turn, Ac-GRPRTTVF-OH yielded an IC50 of 445 µM.

With Ac-GRPRTTWF-OH, the IC50 was over 500 µM.
